{
  "source": "patent US10781471B2",
  "about": "“NRAS related cancer therapy” (Ruijin Hospital Affiliated to Shanghai Jiao Tong University …, priority 2014, dated 2020)",
  "origin": "cited, not measured here",
  "test_system": "acute lymphoblastic leukemia (ALL)",
  "conditions": "methotrexate 3.3 mg/m^2 in combination with 60 mg/m^2 of prednisone, given daily; induction in ALL patients",
  "data": [
    {"compound": "CN(Cc1cnc2nc(N)nc(N)c2n1)c1ccc(C(=O)N[C@@H](CCC(=O)O)C(=O)O)cc1", "note": "[methotrexate, Methotrexate]", "values": [
      {"measurement": "period within which remission was usually produced", "result": "4 to 6", "unit": "weeks"},
      {"measurement": "remissions, share of patients treated", "result": 50, "unit": "%"}
    ]}
  ]
}
